# Laboratory results as given in US20100298141A1, “SUBSTITUTED PYRIDINE N-OXIDE HERBICIDES” (E. I. DU PONT DE NEMOURS AND COMPANY, priority 2007, published 2010).
# Tests used:
# crabgrass = test: Test A pre-/postemergence greenhouse test; assay type: in vivo, Digitaria sanguinalis; conditions: for Crabgrass, Large plant response rating: 0 to 100 scale
# Method in brief: (§1)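 Untreated controls served as the reference for visual injury ratings taken about ten days after spraying. The non-phytotoxic solvent/surfactant formulation was applied preemergence to seeded loam and sand and postemergence to plants two to ten cm high.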
# blackgrass = test: Test C pre-/postemergence test; assay type: in vivo, Alopecurus myosuroides; conditions: for Plant response rating, Blackgrass: scale 0 to 100, 0 no effect, 100 complete control
# Method in brief: (§2)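 Test chemicals were formulated with surfactant in a non-phytotoxic solvent and sprayed both on freshly planted seeds (preemergence) and on 1- to 4-leaf plants of 2–18 cm (postemergence). Flooded-paddy pots received compound directly into 3 cm of standing water, maintained for the test.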
# downy brome = test: Test C pre-/postemergence test; assay type: in vivo, Bromus tectorum; conditions: for Plant response rating, Bromegrass, Downy: scale 0 to 100, 0 no effect, 100 complete control
# Method in brief: as §2
# green foxtail = test: Test C pre-/postemergence test; assay type: in vivo, Setaria viridis; conditions: for Plant response rating, Foxtail, Green: scale 0 to 100, 0 no effect, 100 complete control
# Method in brief: as §2
# velvetleaf [1] = test: Test A pre-/postemergence greenhouse test; assay type: in vivo, Abutilon theophrasti; conditions: for Velvetleaf plant response rating: 0 to 100 scale
# Method in brief: as §1
# woolly cupgrass = test: Test C pre-/postemergence test; assay type: in vivo, Eriochloa villosa; conditions: for Plant response rating, Cupgrass, Woolly: scale 0 to 100, 0 no effect, 100 complete control
# Method in brief: as §2
# barnyardgrass [2] = test: Test C flooded paddy test; assay type: in vivo, Echinochloa crus-galli; conditions: Flood
# Method in brief: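 Compound was added to standing water 3 cm above soil, flood maintained, and plants held in a greenhouse before visual scoring against controls at 13 to 15 days.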
# barnyardgrass [3] = test: Test A pre-/postemergence greenhouse test; assay type: in vivo, Echinochloa crus-galli; conditions: for Barnyardgrass plant response rating: 0 to 100 scale
# Method in brief: as §1
# common ragweed = test: Test C pre-/postemergence test; assay type: in vivo, Ambrosia elation; conditions: for Plant response rating, Ragweed: scale 0 to 100, 0 no effect, 100 complete control
# Method in brief: as §2
# velvetleaf [4] = test: Test C pre-/postemergence test; assay type: in vivo, Abutilon theophrasti; conditions: Postemergence; for Plant response rating, Velvetleaf: scale 0 to 100, 0 no effect, 100 complete control
# Method in brief: as §2
# lambsquarters = test: Test C pre-/postemergence test; assay type: in vivo, Chenopodium album; conditions: for Plant response rating, Lambsquarters: scale 0 to 100, 0 no effect, 100 complete control
# Method in brief: as §2
# soybean = test: Test C pre-/postemergence test; assay type: in vivo, Glycine max; conditions: for Plant response rating, Soybean: scale 0 to 100, 0 no effect, 100 complete control
# Method in brief: as §2
# Surinam grass = test: Test C pre-/postemergence test; assay type: in vivo, Brachiaria decumbens; conditions: for Surinam Grass plant response rating: preemergence, scale 0 (no effect) to 100 (complete control); for Plant response rating, Surinam Grass: scale 0 to 100, 0 no effect, 100 complete control
# Method in brief: as §2
# pigweed = test: Test C pre-/postemergence test; assay type: in vivo, Amaranthus retroflexus; conditions: for Plant response rating, Pigweed: scale 0 to 100, 0 no effect, 100 complete control
# Method in brief: as §2
# catchweed bedstraw = test: Test C pre-/postemergence test; assay type: in vivo, Galium aparine
# Text: Seeds of plant species selected from blackgrass (Alopecurus myosuroides), downy brome (Bromus tectorum), green foxtail (Setaria viridis), Italian ryegrass (Lolium multiflorum), wheat (Triticum aestivum), wild oat (Avena fatua), catchweed bedstraw (Galium aparine), Russian thistle (Salsola kali), […] (Cynodon dactylon), Surinam grass (Brachiaria decumbens), cocklebur (Xanthium strumarium), corn (Zea mays), crabgrass (Digitaria sanguinalis), woolly cupgrass (Eriochloa villosa), giant foxtail (Setaria faberii), Goosegrass (Eleusin indica), johnsongrass (Sorghum halepense), kochia (Kochia scoparia), lambsquarters (Chenopodium album), morningglory (Ipomoea coccinea), eastern black nightshade (Solanum ptycanthum), yellow nutsedge (Cyperus esculentus), pigweed (Amaranthus retroflexus), common ragweed (Ambrosia elation), soybean (Glycine max), common (oilseed) sunflower (Helianthus annuus), and velvetleaf (Abutilon theophrasti) were planted and treated preemergence with test chemicals formulated in a non-phytotoxic solvent mixture which included a surfactant. At the same time, plants selected from these crop and weed species and also winter barley (Hordeum vulgare), canarygrass (Phalaris minor), and chickweed (Stellaria media) were treated with postemergence applications of some of the test chemicals formulated in the same manner. Plants ranged in height from 2 to 18 cm (1- to 4-leaf stage) for postemergence treatments. […] At time of treatment, test pots were flooded to 3 cm above the soil surface, treated by application of test compounds directly to the paddy water, and then maintained at that water depth for the duration of the test. […] A dash (-) response means no test result.
# giant foxtail = test: Test A pre-/postemergence greenhouse test; assay type: in vivo, Setaria faberi; conditions: for Foxtail, Giant plant response rating: 0 to 100 scale
# Method in brief: as §1
# [5] = Postemergence, 125 g ai/ha, 0 is no effect, 100 is complete control
# [6] = Postemergence, 500 g ai/ha, 0 is no effect, 100 is complete control
# [7] = Preemergence, 125 g ai/ha, 0 no effect, 100 complete control
# [8] = Preemergence, 500 g ai/ha, 0 to 100 scale where 0 is no effect and 100 is complete control
# [9] = 31 g ai/ha, Preemergence, scale 0 to 100
# [10] = 62 g ai/ha, preemergence, scale 0 (no effect) to 100 (complete control)
# [11] = preemergence, 125 g ai/ha, scale 0 (no effect) to 100 (complete control)
smiles,measurement,setting,value
Cc1cc[n+]([O-])c(S(=O)(=O)Cc2c(C(F)(F)F)nn(C)c2OC(F)F)c1 [Compound 2],"Crabgrass, Large plant response rating",crabgrass; [5],70
same,"Crabgrass, Large plant response rating",crabgrass; [6],90
same,"Crabgrass, Large plant response rating",crabgrass; [7],90
same,"Plant response rating, Crabgrass, Large",crabgrass; [8],100
same,Blackgrass plant response rating,blackgrass; [9],60
same,Blackgrass plant response rating,blackgrass; [10],80
same,"Plant response rating (0 to 100), Blackgrass","blackgrass; Postemergence, 31 g ai/ha",0
same,"Plant response rating, Blackgrass","blackgrass; Postemergence, 62 g ai/ha",0
same,"Plant response rating, Blackgrass","blackgrass; Postemergence, 125 g ai/ha",0
same,"Plant response rating, Blackgrass","blackgrass; Postemergence, 250 g ai/ha",0
same,"Plant response rating (0 to 100), Blackgrass","blackgrass; Preemergence, 250 g ai/ha",100
same,Blackgrass plant response rating,blackgrass; [11],80
same,"Bromegrass, Downy plant response rating",downy brome; [9],0
same,"Bromegrass, Downy plant response rating",downy brome; [10],40
same,"Plant response rating (0 to 100), Bromegrass, Downy","downy brome; Postemergence, 31 g ai/ha",0
same,"Plant response rating, Bromegrass, Downy","downy brome; Postemergence, 62 g ai/ha",0
same,"Plant response rating, Bromegrass, Downy","downy brome; Postemergence, 125 g ai/ha",0
same,"Plant response rating, Bromegrass, Downy","downy brome; Postemergence, 250 g ai/ha",0
same,"Plant response rating (0 to 100), Bromegrass, Downy","downy brome; Preemergence, 250 g ai/ha",45
same,"Bromegrass, Downy plant response rating",downy brome; [11],45
same,"Foxtail, Green plant response rating",green foxtail; [9],100
same,"Foxtail, Green plant response rating",green foxtail; [10],100
same,"Plant response rating (0 to 100), Foxtail, Green","green foxtail; Postemergence, 31 g ai/ha",0
same,"Plant response rating, Foxtail, Green","green foxtail; Postemergence, 62 g ai/ha",0
same,"Plant response rating, Foxtail, Green","green foxtail; Postemergence, 125 g ai/ha",20
same,"Plant response rating, Foxtail, Green","green foxtail; Postemergence, 250 g ai/ha",50
same,"Plant response rating (0 to 100), Foxtail, Green","green foxtail; Preemergence, 250 g ai/ha",100
same,"Foxtail, Green plant response rating",green foxtail; [11],100
same,Velvetleaf plant response rating,velvetleaf [1]; [5],60
same,Velvetleaf plant response rating,velvetleaf [1]; [6],80
same,Velvetleaf plant response rating,velvetleaf [1]; [7],70
same,"Plant response rating, Velvetleaf",velvetleaf [1]; [8],90
same,"Cupgrass, Woolly plant response rating",woolly cupgrass; [9],65
same,"Cupgrass, Woolly plant response rating",woolly cupgrass; [10],90
same,"Plant response rating (0 to 100), Cupgrass, Woolly","woolly cupgrass; Postemergence, 31 g ai/ha",0
same,"Plant response rating, Cupgrass, Woolly","woolly cupgrass; Postemergence, 62 g ai/ha",30
same,"Plant response rating, Cupgrass, Woolly","woolly cupgrass; Postemergence, 125 g ai/ha",50
same,"Plant response rating, Cupgrass, Woolly","woolly cupgrass; Postemergence, 250 g ai/ha",50
same,"Plant response rating (0 to 100), Cupgrass, Woolly","woolly cupgrass; Preemergence, 250 g ai/ha",100
same,"Cupgrass, Woolly plant response rating",woolly cupgrass; [11],100
same,"Plant response rating, Barnyardgrass","barnyardgrass [2]; 31 g ai/ha, scale 0 to 100 (0 no effect, 100 complete control)",0
same,"Plant response rating, Barnyardgrass","barnyardgrass [2]; 62 g ai/ha, scale 0 to 100, 0 no effect, 100 complete control, 13 to 15 days",0
same,"Plant response rating, Barnyardgrass","barnyardgrass [2]; 125 g ai/ha, scale 0 to 100, 0 no effect, 100 complete control, 13 to 15 days",55
same,"Plant response rating, Barnyardgrass","barnyardgrass [2]; 250 g ai/ha, scale 0 to 100 (0 no effect, 100 complete control)",85
same,Barnyardgrass plant response rating,barnyardgrass [3]; [5],70
same,Barnyardgrass plant response rating,barnyardgrass [3]; [6],80
same,Barnyardgrass plant response rating,barnyardgrass [3]; [7],90
same,"Plant response rating, Barnyardgrass",barnyardgrass [3]; [8],100
same,Ragweed plant response rating,common ragweed; [9],20
same,Ragweed plant response rating,common ragweed; [10],98
same,"Plant response rating (0 to 100), Ragweed","common ragweed; Postemergence, 31 g ai/ha",0
same,"Plant response rating (0 to 100), Ragweed","common ragweed; Postemergence, 62 g ai/ha",0
same,"Plant response rating, Ragweed","common ragweed; Postemergence, 125 g ai/ha",5
same,"Plant response rating, Ragweed","common ragweed; Postemergence, 250 g ai/ha",10
same,"Plant response rating (0 to 100), Ragweed","common ragweed; Preemergence, 250 g ai/ha",100
same,Ragweed plant response rating,common ragweed; [11],100
same,"Plant response rating (0 to 100), Velvetleaf",velvetleaf [4]; 31 g ai/ha,0
same,"Plant response rating (0 to 100), Velvetleaf",velvetleaf [4]; 62 g ai/ha,0
same,"Plant response rating, Velvetleaf",velvetleaf [4]; 125 g ai/ha,0
same,"Plant response rating, Velvetleaf",velvetleaf [4]; 250 g ai/ha,5
same,Lambsquarters plant response rating,lambsquarters; [9],0
same,Lambsquarters plant response rating,lambsquarters; [10],70
same,"Plant response rating (0 to 100), Lambsquarters","lambsquarters; Postemergence, 31 g ai/ha",0
same,"Plant response rating, Lambsquarters","lambsquarters; Postemergence, 62 g ai/ha",0
same,"Plant response rating, Lambsquarters","lambsquarters; Postemergence, 125 g ai/ha",0
same,"Plant response rating, Lambsquarters","lambsquarters; Postemergence, 250 g ai/ha",0
same,"Plant response rating (0 to 100), Lambsquarters","lambsquarters; Preemergence, 250 g ai/ha",100
same,Lambsquarters plant response rating,lambsquarters; [11],100
same,"Plant response rating (0 to 100), Soybean","soybean; Postemergence, 31 g ai/ha",40
same,"Plant response rating (0 to 100), Soybean","soybean; Postemergence, 62 g ai/ha",50
same,"Plant response rating, Soybean","soybean; Postemergence, 125 g ai/ha",50
same,"Plant response rating, Soybean","soybean; Postemergence, 250 g ai/ha",50
same,"Plant response rating (0 to 100), Soybean","soybean; Preemergence, 250 g ai/ha",70
same,Soybean plant response rating,soybean; [11],50
same,Surinam Grass plant response rating,Surinam grass; 62 g ai/ha,100
same,"Plant response rating (0 to 100), Surinam Grass","Surinam grass; Postemergence, 31 g ai/ha",0
same,"Plant response rating (0 to 100), Surinam Grass","Surinam grass; Postemergence, 62 g ai/ha",0
same,"Plant response rating, Surinam Grass","Surinam grass; Postemergence, 125 g ai/ha",0
same,"Plant response rating, Surinam Grass","Surinam grass; Postemergence, 250 g ai/ha",0
same,"Plant response rating (0 to 100), Surinam Grass","Surinam grass; Preemergence, 250 g ai/ha",100
same,Surinam Grass plant response rating,Surinam grass; 125 g ai/ha,100
same,Pigweed plant response rating,pigweed; [9],100
same,Pigweed plant response rating,pigweed; [10],100
same,"Plant response rating (0 to 100), Pigweed","pigweed; Postemergence, 31 g ai/ha",0
same,"Plant response rating (0 to 100), Pigweed","pigweed; Postemergence, 62 g ai/ha",0
same,"Plant response rating, Pigweed","pigweed; Postemergence, 125 g ai/ha",0
same,"Plant response rating, Pigweed","pigweed; Postemergence, 250 g ai/ha",0
same,"Plant response rating (0 to 100), Pigweed","pigweed; Preemergence, 250 g ai/ha",100
same,Pigweed plant response rating,pigweed; [11],100
same,Galium plant response rating,catchweed bedstraw; [9],85
same,Galium plant response rating,catchweed bedstraw; [10],95
same,"Plant response rating (0 to 100), Galium","catchweed bedstraw; Preemergence, 250 g ai/ha",100
same,Galium plant response rating,catchweed bedstraw; [11],100
same,"Foxtail, Giant plant response rating",giant foxtail; [5],80
same,"Foxtail, Giant plant response rating",giant foxtail; [6],90
same,"Foxtail, Giant plant response rating",giant foxtail; [7],100
same,"Plant response rating, Foxtail, Giant",giant foxtail; [8],100
